These results are taken from PubChem BioAssay (NCI).

Molecules are shown by their SMILES.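 Compound exposure: 48 hours, 5 concentrations, 96-well plates. The concentration for 50% growth inhibition is given as GI50. Definition used: TGI = concentration required for complete inhibition of growth.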 Bounds are passed on as bounds.

Test systems include ACHN renal; EKVX NSCLC; HL-60(TB) leukemia; HT29 colon; K-562 leukemia; NCI-H522 lung; OVCAR-5 ovarian; SK-MEL-28 melanoma; SN12C renal; SR leukemia.
Common to all, as to assay: NCI-60 cell line screen, 48 h

Regarding `CN1CCN(Cc2ccc(NC(=O)c3cncc(C#Cc4c(N)ncc5cc(F)ccc45)c3)cc2C(F)(F)F)CC1`, the GI50 in the test on ACHN renal is 1.99 µM; in the test with EKVX NSCLC, 2.8 µM; in the test with HL-60(TB) leukemia it was 0.289 µM; in the test with HT29 colon, 0.276 µM; with K-562 leukemia it was 0.005 µM; with NCI-H522 lung it was 2.01 µM. Also, the GI50 in the test with OVCAR-5 ovarian is 1.06 µM; in the test with SK-MEL-28 melanoma it was 0.729 µM; in the test with SN12C renal, 1.39 µM; in the test with SR leukemia it was 1.47 µM. Further, the TGI with ACHN renal was determined as 8.84 µM; in the test on EKVX NSCLC it was 10.2 µM; in the test with HL-60(TB) leukemia, 1.49 µM; in the test on HT29 colon, 1.15 µM; in the test with K-562 leukemia it was 1.09 µM; with NCI-H522 lung, 5.45 µM. Moreover, the TGI was determined as 3.55 µM in the test on OVCAR-5 ovarian, 1.43 µM in the test on SK-MEL-28 melanoma, 3.84 µM in the test on SN12C renal and 50 µM with SR leukemia.
Turning to `O=C(/C=C\Sc1nccc(C(F)(F)F)n1)c1ccc(Br)cc1`, the GI50 with ACHN renal is 15.9 µM; in the test on EKVX NSCLC, 23.3 µM; in the test on HL-60(TB) leukemia, 0.84 µM; in the test on HT29 colon, 19.6 µM; in the test on K-562 leukemia, 15 µM; with NCI-H522 lung, 15 µM. The GI50 in the test with OVCAR-5 ovarian is 21.8 µM; in the test on SK-MEL-28 melanoma, 16 µM; in the test on SN12C renal it was 18.8 µM; in the test with SR leukemia it was 11.1 µM. Moreover, the TGI in the test with ACHN renal is 29.7 µM; in the test with EKVX NSCLC it was 67.4 µM; in the test on HL-60(TB) leukemia, 20.8 µM; with HT29 colon, 41.6 µM; in the test with K-562 leukemia, 44.1 µM; with NCI-H522 lung, 33.2 µM. Further, the TGI with OVCAR-5 ovarian is 70.7 µM; in the test with SK-MEL-28 melanoma it was 32.1 µM; in the test on SN12C renal, 43.1 µM; in the test with SR leukemia, 26.3 µM.
Consider `COc1cc(-c2nc3ccccc3s2)ccc1OCc1nc2n(n1)S(=O)(=O)c1ccccc1N2C`, for which the GI50 with ACHN renal is > 100 µM; in the test on EKVX NSCLC, > 100 µM; with HL-60(TB) leukemia, > 100 µM; with HT29 colon, > 100 µM; in the test with K-562 leukemia it was 97.4 µM; in the test with NCI-H522 lung, 96.8 µM. The GI50 with OVCAR-5 ovarian, in the test on SK-MEL-28 melanoma, in the test on SN12C renal and in the test with SR leukemia was > 100 µM in each case. Also, the TGI in the test with ACHN renal, with EKVX NSCLC, in the test on HL-60(TB) leukemia, with HT29 colon, in the test on K-562 leukemia and in the test on NCI-H522 lung was > 100 µM in each case. The TGI in the test on OVCAR-5 ovarian, in the test with SK-MEL-28 melanoma, with SN12C renal and in the test with SR leukemia was > 100 µM each time.
On to `CCOC(=O)C1=C(C)N(NC(=O)c2ccccc2)C2(O)CCCC12C(=O)OCC` (centres undefined), for which the TGI in the test with ACHN renal, in the test with EKVX NSCLC, with HL-60(TB) leukemia, with HT29 colon, in the test with K-562 leukemia and in the test with NCI-H522 lung was > 100 µM each time. Further, the TGI in the test with OVCAR-5 ovarian, in the test with SK-MEL-28 melanoma, in the test with SN12C renal and in the test with SR leukemia was > 100 µM each time.
For the molecule `Nc1nc(N)c(-c2ccc(Cl)cc2)c(CCC(=O)Nc2cccc(C(F)(F)F)c2)n1`, the TGI in the test on ACHN renal, in the test with EKVX NSCLC, with HL-60(TB) leukemia, with HT29 colon, with K-562 leukemia and with NCI-H522 lung was > 100 µM throughout. In addition, the TGI in the test with OVCAR-5 ovarian, in the test on SK-MEL-28 melanoma, in the test on SN12C renal and with SR leukemia was > 100 µM in each case.
In the case of `CC1C2=CC=C(O2)C(C)(C)C2=CC=C(O2)C(C)(C)C2=CC=C(O2)C(C)(C)C2=CC=C1O2`, the TGI in the test with ACHN renal, with EKVX NSCLC, in the test on HL-60(TB) leukemia, with HT29 colon, in the test on K-562 leukemia and in the test with NCI-H522 lung was > 100 µM in each case. Besides, the TGI with OVCAR-5 ovarian, in the test on SK-MEL-28 melanoma, in the test with SN12C renal and with SR leukemia was > 100 µM each time.
For `Cc1c(Cl)ccc2c1NC(=O)C2(O)C1Cc2ccccc2C1=O` (centres undefined), the TGI is > 100 µM with ACHN renal; > 100 µM in the test on EKVX NSCLC; 65.4 µM in the test on HL-60(TB) leukemia; > 100 µM with HT29 colon; > 100 µM with K-562 leukemia; > 100 µM with NCI-H522 lung. The TGI in the test with OVCAR-5 ovarian, with SK-MEL-28 melanoma, in the test on SN12C renal and in the test on SR leukemia was > 100 µM throughout.
Consider `COc1cnc2c(c1)C(=O)c1c-2n(CCCN2CCN(C)CC2)c(=O)c2cc(Cl)ccc12`, for which the GI50 is 0.783 µM in the test with ACHN renal; 7.73 µM with EKVX NSCLC; 18 µM in the test with HL-60(TB) leukemia; 1.37 µM in the test on HT29 colon; 1.19 µM in the test on K-562 leukemia; 6.32 µM with NCI-H522 lung. Moreover, the GI50 with OVCAR-5 ovarian is 3.56 µM; with SK-MEL-28 melanoma, 2.3 µM; in the test with SN12C renal, 10.2 µM; in the test on SR leukemia it was 0.584 µM. Besides, the TGI in the test with ACHN renal is 14.3 µM; in the test on EKVX NSCLC, 31.9 µM; in the test on HL-60(TB) leukemia, 42.4 µM; with HT29 colon it was > 100 µM; in the test on K-562 leukemia it was 3.51 µM; in the test on NCI-H522 lung, 52.1 µM. The TGI was determined as 13.3 µM with OVCAR-5 ovarian, 5.04 µM in the test with SK-MEL-28 melanoma, 58.2 µM with SN12C renal and 27.3 µM in the test on SR leukemia.
For the molecule `CO[C@H]1CC[C@@]2(C)C(=CC[C@H]3[C@@H]4C[C@H](O)C[C@@]4(C)CC[C@@H]32)C1`, the GI50 in the test with ACHN renal was 8.2 µM; in the test on EKVX NSCLC, 6.85 µM; with HL-60(TB) leukemia it was 3.69 µM; with HT29 colon it was 3.59 µM; in the test on K-562 leukemia it was 2.78 µM; in the test with NCI-H522 lung, 3.96 µM. The GI50 with OVCAR-5 ovarian is 20.2 µM; in the test on SK-MEL-28 melanoma, 8.55 µM; in the test on SN12C renal, 6.61 µM; with SR leukemia, 2.72 µM. For the same molecule, the TGI in the test with ACHN renal stood at 28.3 µM; in the test with EKVX NSCLC it was 29 µM; in the test with HL-60(TB) leukemia, 66.7 µM; in the test on HT29 colon, 12.4 µM; in the test on K-562 leukemia, 16 µM; with NCI-H522 lung, 15.5 µM. For the same molecule, the TGI in the test with OVCAR-5 ovarian was 44.1 µM; with SK-MEL-28 melanoma, 22.1 µM; in the test with SN12C renal, 22 µM; in the test with SR leukemia, 14.9 µM.
`O=C1/C(=C/c2ccc(Cl)cc2)CN(C(=O)C(Cl)Cl)C/C1=C\c1ccc(Cl)cc1`: the GI50 is 0.214 µM in the test on ACHN renal; 0.292 µM in the test with EKVX NSCLC; 0.291 µM in the test with HL-60(TB) leukemia; 0.0714 µM with HT29 colon; 0.0469 µM in the test with K-562 leukemia; 0.31 µM with NCI-H522 lung. In addition, the GI50 in the test on OVCAR-5 ovarian is 0.287 µM; in the test with SK-MEL-28 melanoma, 0.227 µM; in the test on SN12C renal, 0.203 µM; in the test with SR leukemia it was 0.0395 µM. The TGI in the test on ACHN renal is 0.475 µM; with EKVX NSCLC it was 1.03 µM; in the test on HT29 colon it was 1.43 µM; with K-562 leukemia, > 68.9 µM; in the test with NCI-H522 lung, 1.4 µM; in the test with OVCAR-5 ovarian it was 0.799 µM. The TGI in the test with SK-MEL-28 melanoma is 0.517 µM; in the test with SN12C renal, 0.541 µM; with SR leukemia it was > 40.1 µM.
As for `Nc1nccc(Nc2ccc(S(N)(=O)=O)cc2)n1`, the TGI in the test with ACHN renal, with EKVX NSCLC, in the test on HL-60(TB) leukemia, in the test with HT29 colon, in the test on K-562 leukemia and in the test with NCI-H522 lung was > 100 µM throughout. For the same molecule, the TGI with OVCAR-5 ovarian, in the test on SK-MEL-28 melanoma, in the test on SN12C renal and in the test with SR leukemia was > 100 µM each time.
Take `CCN(CC)c1ccc2c(c1)N=C1N=CC=CN1C2(c1ccc(N(C)C)cc1)c1ccc(N(C)C)cc1`: the TGI in the test on ACHN renal was 16.1 µM; in the test on EKVX NSCLC, 23.8 µM; in the test on HL-60(TB) leukemia, 3.3 µM; with HT29 colon, 10.6 µM; with K-562 leukemia, 5.96 µM; in the test on NCI-H522 lung it was 5.12 µM. The TGI was 27.4 µM with OVCAR-5 ovarian, 26 µM with SK-MEL-28 melanoma, 19.3 µM with SN12C renal and 12.9 µM in the test with SR leukemia.
For the molecule `C[C@]12CCC(=O)C=C1CC[C@@H]1[C@@H]2CC[C@]2(C)C(=O)/C(=C/c3cccc(OCCN4CCOCC4)c3)C[C@@H]12`, the GI50 with ACHN renal is 18.7 µM; in the test with EKVX NSCLC it was 5.57 µM; in the test on HL-60(TB) leukemia it was 2.13 µM; in the test on HT29 colon it was 2.87 µM; with K-562 leukemia, 3.51 µM; in the test on NCI-H522 lung, 8 µM. In addition, the GI50 in the test with OVCAR-5 ovarian is 13.4 µM; in the test with SK-MEL-28 melanoma, 11.9 µM; in the test on SN12C renal, 16.7 µM; in the test with SR leukemia, 4.72 µM. In addition, the TGI with ACHN renal is > 100 µM; in the test with EKVX NSCLC, 42.3 µM; with HL-60(TB) leukemia, 5.82 µM; with HT29 colon it was 16.2 µM; in the test on K-562 leukemia it was 15.5 µM; with NCI-H522 lung, 26.4 µM. Also, the TGI in the test on OVCAR-5 ovarian amounted to 34 µM; with SK-MEL-28 melanoma, 29.8 µM; in the test with SN12C renal, 63.6 µM; in the test with SR leukemia, 22 µM.
